pKd, pKi: −log10 of the molar value. Where two headings read alike, the source gives them in different places.
Key:
Con A [1] = molecular target: T1, Con A (Canavalia ensiformis, UniProt P02866); details: obtained by microcalorimetry; cited from earlier work
T1 construct: purchased Sigma

Con A [2] = molecular target: T1, Con A; test: Competitive binding assay on glycan microarray (solution KD / Ki)
Source text: The solution equilibrium dissociation constant (KD) for carbohydrate-lectin interactions can be determined using microarrays in a competitive assay. […] In a competitive binding experiment, carbohydrates in solution compete with immobilized carbohydrate ligands for the binding sites on the lectin, establishing a coupled equilibrium between the binding of protein to the immobilized species and to the species present in solution. Using array imaging signals, the unbound protein concentration [P] can be obtained via Langmuir isotherms (eq 1). Once the concentration of P has been measured, it is possible to determine the KD using eq 2, which is derived from the multivalent Scatchard formula (see the Experimental Section for the derivation of eq 2)
where [Lo] is ligand (carbohydrate) concentration applied to the system, and KD is the solution equilibrium dissociation constant. […] Binding curves, representing different concentrations of competitors were obtained as the function of FITC-Con A concentrations and fluorescence intensities from the Man8 surface (FIG. 4a). The data was analyzed according to eq 2, to afford apparent KD values, which were then replotted against competitor concentration to afford the solution KD values (FIG. 4b). […]
ArrayVision 8.0 (Applied Precision) was used for the fluorescence analysis and extraction of data. […]

Con A [3] = molecular target: T1, Con A; details: obtained by SPR; cited from earlier work
lectins or antibodies = molecular target: T2, lectins or antibodies (Lens culinaris, UniProt P02870); test: Direct binding on glycan microarray, lectin or antibody not named; details: binding protein not given
T2 construct: purchased Sigma
T2 sequence (P02870 31-210 limits assumed): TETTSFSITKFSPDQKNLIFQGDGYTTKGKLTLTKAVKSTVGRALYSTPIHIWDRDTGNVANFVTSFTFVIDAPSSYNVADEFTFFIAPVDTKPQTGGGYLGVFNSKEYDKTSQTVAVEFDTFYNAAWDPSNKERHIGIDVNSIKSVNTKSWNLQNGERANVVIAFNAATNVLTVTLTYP
T2 sequence (P02870 218-269 limits assumed): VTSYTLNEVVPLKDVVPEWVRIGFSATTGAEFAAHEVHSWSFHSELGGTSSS
Source text: Prior studies of carbohydrate-protein interactions have used a threshold-based, one-step qualitative analysis i.e. interaction or non-interaction. The threshold varies from one carbohydrate to another and is based on how well the carbohydrate behaves in the assay. Even when closely related glycans are studied under ideal conditions, they vary with respect to the surface density of active carbohydrates. Since the intensity of a spot depends both on KD,surf (which results from binding affinity), and Fmax (which results from surface active carbohydrate density and protein binding), the information obtained by probing an array with a single concentration of analytes may not be accurate.

Compound: COC1OC(CO)C(O)C(O)C1O (stereo not drawn) [a-MeGlc, α-methyl glucose]
- pKi (Con A [1]): 3.28

Compound: COC1OC(CO)C(O)C(O)C1O (stereo not drawn) [a-MeMan, α-methyl mannose]
- relative affinity KD (a-MeGlc)/KD (a-MeMan) (Con A [2]; inhibitors in solution, Con A): 4.3
- pKi (Con A [1]): 3.92
- pKi (Con A [3]): 4.04

Compound: Man9
- fold stronger than Man1 in binding to Con A (Con A [2]; from solution KD values): more than 10^3 fold
- Fmax (maximal fluorescence intensity) (lectins or antibodies): 25780
- pKd (lectins or antibodies; read-out: KD (dissociation constant, surface)): 6.47
